Laboratory results as given in patent publication US20080146524A1, “Selective inhibitors of neurotensin degrading enzymes” (Solvay Pharmaceuticals B.V., priority 2006, published 2008).
Residues, ends and D or L forms follow the SMILES beside them.

How the values were obtained:
[1] = biological target: Thimet oligopeptidase EC 3.4.24.15 (UniProt P24155); assay: enzyme inhibition of Thimet oligopeptidase EC 3.4.24.15 (published methods, Dauch 1991a,b); assay type: biochemical
Neurolysine EC 3.4.24.16 = Neurolysine EC 3.4.24.16 (UniProt P42676); assay type: biochemical
[2] = in vivo experiments with phosphodiepril
Excerpt: Thus, even in its pure form, the N-analog is not stable. Due to the rapid hydrolysis of the phosphonamide bond, enzyme inhibition activity of this compound can only be determined with difficulty.

[3] = determination of chemical stability, storage in glass vials, LC-MS; assay type: physicochemical; conditions: for relative stability: stored in glass vials, LC-MS; for stability on storage (in words): over 10 days (240 hr)
Procedure: Compound 36 and its phosphinamide analog phosphodiepril (FR 2 654 430, synthesized as disclosed therein) were stored separately in glass vials. At different time intervals samples were taken and analyzed by LC-MS. Samples were dissolved in DMSO (0.1 mg/ml) and diluted by a factor 100 in the first LC eluent (A). At fixed time points an amount of 100 μl was taken from the formulations. These time points were 0, 3, 72, and 240 hours. All samples were measured in the positive mode, with an ESI source on the LC-MS.
Eluents were composed of water (H2O), acetonitril (ACN), methanol (MeOH) and ammonium-acetate (NH4Ac). The eluent is mixed out of two different bottles with two different compositions. • Eluent A consists of H2O/ACN/MeOH 800/100/100+0.77 g/l NH4Ac. • Eluent B consists of H2O/ACN/MeOH 100/800/100+0.77 g/l NH4Ac.
The gradient in the pump was set to:
Columns: Chromsep Guard Column SS 10×2 mm (CP28141) and Inertsil 5 ODS-3 100×3.0 mm (CP22234). Column temperature: 25° C.
Injection: well plate temperature: 25° C. • Injection volume: 20 μl • Splitter (post column): 1:4 • Run time: 9.50 minutes.
Detection MS-MS:ESI (pos/neg) spray 3.0 kV • Fragmentor 70 • Gain 2.0 • Dwell 700 msec • Nebulizer pressure 42 psig • Drying gas temperature 325° C. • Capillary temperature 325° C.
Compound 36 and its phosphinamide analog phosphodiepril (FR 2 654 430, synthesized as disclosed therein) were stored separately in glass vials. At different time intervals samples were taken and analyzed by LC-MS.
When calculating the relative stability it was assumed that the compounds were completely dissolved during formulation. Therefore, the relative stability is 100% at the beginning (0 hour measurement). The following time measurements are recalculated from that measurement.

[4] = system: Corynebacterium rathayii collagenase; conditions: cited from earlier work
endopeptidase 24.16 = endopeptidase 24.16 (Rattus norvegicus, UniProt P42676); conditions: cited from earlier work
Sequence of endopeptidase 24.16 (P42676 38-704): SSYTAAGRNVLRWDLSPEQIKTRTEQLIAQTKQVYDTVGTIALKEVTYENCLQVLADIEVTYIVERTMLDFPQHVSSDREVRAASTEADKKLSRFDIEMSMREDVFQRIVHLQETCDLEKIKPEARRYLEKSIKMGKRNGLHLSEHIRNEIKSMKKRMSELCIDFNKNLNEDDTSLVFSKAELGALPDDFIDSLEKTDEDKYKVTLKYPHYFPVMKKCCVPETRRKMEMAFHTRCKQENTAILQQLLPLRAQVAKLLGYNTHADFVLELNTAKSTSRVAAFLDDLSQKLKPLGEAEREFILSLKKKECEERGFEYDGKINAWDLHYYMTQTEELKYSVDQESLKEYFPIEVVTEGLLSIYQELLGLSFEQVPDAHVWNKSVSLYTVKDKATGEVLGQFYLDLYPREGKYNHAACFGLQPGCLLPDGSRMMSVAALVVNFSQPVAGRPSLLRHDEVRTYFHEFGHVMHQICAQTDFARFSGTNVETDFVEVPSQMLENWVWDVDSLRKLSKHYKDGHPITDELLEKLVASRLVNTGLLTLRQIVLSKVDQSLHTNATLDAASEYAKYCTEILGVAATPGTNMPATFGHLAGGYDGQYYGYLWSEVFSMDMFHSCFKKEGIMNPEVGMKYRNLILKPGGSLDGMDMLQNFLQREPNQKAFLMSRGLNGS

endopeptidase 24.15 = endopeptidase 24.15 (Rattus norvegicus, UniProt P24155); conditions: at concentrations as high as 5 mM; cited from earlier work
Sequence of endopeptidase 24.15 (P24155 whole entry): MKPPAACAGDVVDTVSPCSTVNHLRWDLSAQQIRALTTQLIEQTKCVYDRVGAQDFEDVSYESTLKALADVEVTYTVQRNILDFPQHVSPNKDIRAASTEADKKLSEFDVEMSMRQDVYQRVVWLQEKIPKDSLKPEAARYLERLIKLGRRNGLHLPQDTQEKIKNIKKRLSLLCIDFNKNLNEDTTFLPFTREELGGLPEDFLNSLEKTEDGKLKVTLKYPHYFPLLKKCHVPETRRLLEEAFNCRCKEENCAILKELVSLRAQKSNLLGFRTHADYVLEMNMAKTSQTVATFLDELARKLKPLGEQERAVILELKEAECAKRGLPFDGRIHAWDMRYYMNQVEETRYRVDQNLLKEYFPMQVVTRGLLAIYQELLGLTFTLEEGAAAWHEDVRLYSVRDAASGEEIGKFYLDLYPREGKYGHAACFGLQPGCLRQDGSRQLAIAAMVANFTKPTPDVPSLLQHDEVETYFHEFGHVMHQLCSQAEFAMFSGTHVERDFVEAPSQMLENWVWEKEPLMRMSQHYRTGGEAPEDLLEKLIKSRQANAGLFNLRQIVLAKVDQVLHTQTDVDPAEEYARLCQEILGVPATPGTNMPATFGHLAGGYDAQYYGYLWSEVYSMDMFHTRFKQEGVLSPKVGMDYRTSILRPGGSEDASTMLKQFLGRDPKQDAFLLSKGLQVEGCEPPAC

[5] = Time 0 hr (set to 100% at the beginning)
[6] = Time 240 hr, relative to 0 hour

Compound	enzyme inhibition EC 3.4.24.15 pIC50 [1]	enzyme inhibition EC 3.4.24.16 pIC50 (Neurolysine EC 3.4.24.16)	other results
CCC(C)C(NC(=O)CCP(=O)(O)CCc1cccc2ccccc12)C(=O)NC(C(=O)O)C(C)C (stereo not drawn) [Compound 28]	6.3	5.8	–
CCCCC(NC(=O)C(NC(=O)CCP(=O)(O)CCc1cccc2ccccc12)C(C)C)C(=O)O (stereo not drawn) [Compound 26]	6.5	6.3	–
CCCC[C@H](NC(=O)[C@@H]1CCCN1C(=O)CNP(=O)(O)CCc1ccc2ccccc2c1)C(=O)O [phosphodiepril, reference compound]	–	–	outcome of in vivo experiments [2]: negative results; relative stability [3, 5]: 100%; relative stability ([3]; Time 3 hr, relative to 0 hour): 92%; relative stability ([3]; Time 72 hr, relative to 0 hour): 87%; relative stability [3, 6]: 82%; stability on storage (in words) [3]: gradually degraded
CCCC[C@H](NC(=O)[C@@H]1CCCN1C(=O)CCP(=O)(O)CCc1ccccc1)C(=O)O [N-[1-[3-[hydroxyl-(2-phenyl-ethyl)phosphinyl]1-oxopropyl]-L-prolyl]-L-norleucine]	–	–	inhibition of Corynebacterium rathayii collagenase [4]: potent inhibitor
CCC(NC(=O)C(Cc1ccccc1)NC(=O)CCP(=O)(O)Cc1ccc2ccccc2c1)C(=O)O (stereo not drawn) [Compound 25]	5.7	5.9	–
CC[C@H](C)[C@H](NC(=O)[C@@H]1CCCN1)C(=O)O [Pro-IIe] (H-Pro-Ile-OH)	–	–	Ki (endopeptidase 24.16): 90 µM; inhibition of endopeptidase 24.15 (endopeptidase 24.15): does not inhibit
CCC(C)C(NC(=O)CCP(=O)(O)CCc1ccc2ccccc2c1)C(=O)NC(CC(C)C)C(=O)O (stereo not drawn) [Compound 29]	7.0	6.6	–
CCC(C)C(NC(=O)CCP(=O)(O)CCc1cccc2ccccc12)C(=O)NC(CC(C)C)C(=O)O (stereo not drawn) [Compound 30]	5.8	5.2	–
CC(C)C(NC(=O)CCP(=O)(O)CCCCc1ccccc1)C(=O)NC(Cc1ccccc1)C(=O)O (stereo not drawn) [Compound 7]	6.2	6.1	–
CCC(C)C(NC(=O)CCP(=O)(O)CCCCc1ccccc1)C(=O)NC(CC(C)C)C(=O)O (stereo not drawn) [Compound 9]	6.3	5.6	–
CC(C)C(NC(=O)CCP(=O)(O)CCc1cccc2ccccc12)C(=O)NC(Cc1ccccc1)C(=O)O (stereo not drawn) [Compound 27]	6.2	6.1	–
CCCC[C@H](NC(=O)[C@@H]1CCCN1C(=O)CCP(=O)(O)CCc1ccc2ccccc2c1)C(=O)O [Compound 36]	8.9	>7.5	relative stability [3, 5]: 100%; relative stability ([3]; Time 3 hr, relative to 0 hour): 101%; relative stability ([3]; Time 72 hr, relative to 0 hour): 103%; relative stability [3, 6]: 100%; stability on storage (in words) [3]: remained stable
CCCCC(NC(=O)C(C)N(C)C(=O)CCP(=O)(O)CCCCc1ccccc1)C(=O)O (stereo not drawn) [Compound 11]	6.2	6.1	–
CCC(C)C(NC(=O)CCP(=O)(O)CCCCc1ccccc1)C(=O)NC(C(=O)O)C(C)C (stereo not drawn) [Compound 8]	5.8	5.4	–
CCCCC(NC(=O)C(C)N(C)C(=O)CCP(=O)(O)CCc1ccc2ccccc2c1)C(=O)O (stereo not drawn) [Compound 32]	7.0	–	–
CCCCC(NC(=O)C(NC(=O)CCP(=O)(O)CCCCc1ccccc1)C(C)C)C(=O)O (stereo not drawn) [Compound 6]	6.8	6.7	–
